{"source": "patent US10751353B2", "about": "“Compositions and methods for treating an aggregation disease or disorder” (Seelos Therapeutics, Inc., priority 2013, dated 2020)", "key": {"[1]": {"test_system": "Rat", "conditions": "cited from earlier work"}, "[2]": {"conditions": "cited from earlier work"}, "[3]": {"test_system": "mutant PABPN1 proteins", "conditions": "OPMD cell models; cited from earlier work"}, "[4]": {"conditions": "cited from earlier work", "remark": "listed apart in the source"}, "[5]": {"conditions": "rabbits; 500 mg intravenously; cited from earlier work"}, "[6]": {"experiment": "Preclinical PK study: plasma and muscle concentrations of trehalose after IV bolus and oral gavage", "assay_type": "in vivo, male Sprague-Dawley (SD) rats", "procedure": "The plasma and muscle concentrations of trehalose in male Sprague-Dawley (SD) rats was determined after intravenous bolus (IV) and oral gavage (PO) administration.\nThe study included 42 SD rats (male, 250 to 350 grams in weight, the Shanghai SLAC Laboratory Animal Co. Ltd.). Animals were administered with a volume of 5 ml/kg trehalose formulation (trehalose dihydrate in sterilized water at 200 mg/mL) to achieve a nominal dose of 1 gr/kg, intravenously or orally.\nBlood samples were collected after each dose administration and processed for plasma. Muscle samples (hind leg muscle) were collected and homogenized. The concentrations of trehalose in plasma and muscle homogenate samples were analyzed by qualified bioanalytical LC/MS/MS methods.\nPlasma concentration data of trehalose was subjected to a non compartmental pharmacokinetic analysis using WinNonlin software program (version 6.3, Pharsight, Mountain View, Calif.). Zero-time intercept concentration (C0), volume of distribution (Vdss), Clearance (Cl) peak plasma concentrations (Cmax) and the corresponding peak times (Tmax), terminal half-life (T½), mean residence time (MRT) from time zero to the last time point (MRT0-last), MRT from time zero to infinity (MRT0-inf), the area under the plasma concentration-time curve (AUC) from time zero to the last time point (AUC0-last) and AUC from time zero extrapolated to infinity (AUC0-inf) were calculated using the linear/log trapezoidal rule. Nominal sampling times were used to calculate all pharmacokinetic parameters since there was not any deviation larger than 5% between the actual and nominal sampling times.\nThe values of muscle to plasma concentration and AUC ratio (M/P ratio) were both calculated."}, "[7]": {"test_system": "Dog", "conditions": "cited from earlier work; for LD50: Dog"}, "[8]": {"test_system": "Mouse", "conditions": "cited from earlier work; for LD50: Mouse"}, "[9]": {"test_system": "OPMD mouse model", "conditions": "cited from earlier work"}, "[10]": {"conditions": "male, Sprague-Dawley, rat, in vivo, iv, 1000 mg/kg"}, "[11]": {"conditions": "male, Sprague-Dawley, rat, in vivo, po, 1000 mg/kg"}}, "note": "Several values for one entry are separate records, joined by “and”; a condition that tells them apart may be missing. Equal entries are not always repeated. Where two headings read alike, the source gives them in different places.", "data": [{"smiles": "OC[C@H]1O[C@H](O[C@H]2O[C@H](CO)[C@@H](O)[C@H](O)[C@H]2O)[C@H](O)[C@@H](O)[C@@H]1O", "note": "[trehalose]", "values": [{"measurement": "LD50", "setting": "[1]; Rat, Intravenous", "value": ">1000", "unit": "mg/kg bw"}, {"measurement": "signs of toxicity and deaths", "setting": "[1]; rats, oral and intravenous administration", "value": "no deaths occurred"}, {"measurement": "share of ingested trehalose absorbed into the blood stream", "setting": "[2]; oral ingestion", "value": "Less than 0.5%"}, {"measurement": "share of trehalose not absorbed into the blood stream", "setting": "[2]; oral", "value": "Over 99.5%"}, {"measurement": "aggregation and toxicity of mutant PABPN1 proteins", "setting": "[3]", "value": "effective in reducing"}, {"measurement": "safety in healthy volunteers", "setting": "[4]; oral doses 10 to 60 gr, apart from mild abdominal symptoms", "value": "no other safety issues were reported"}, {"measurement": "oral amount that causes diarrhea and bloating", "setting": "[4]; oral", "value": "40-50 gram per day"}, {"measurement": "oral amount that frequently causes diarrhea, bloating and discomfort", "setting": "[4]; oral, humans", "value": "higher than 50 g a day"}, {"measurement": "time to clearance from the plasma", "setting": "[5]", "value": "≤ 60", "unit": "min"}, {"measurement": "trehalose detected in the urine", "setting": "[5]", "value": "none was detected"}, {"measurement": "tolerability at the given dosage", "setting": "[6]; 1000 mg/kg IV or PO, male SD rats", "value": "well tolerated"}, {"measurement": "bioavailability", "setting": "[6]; male, Sprague-Dawley, rat, in vivo, 1000 mg/kg", "value": 0.601, "unit": "%"}, {"measurement": "AUC(0-inf)", "setting": "[6]; [10]", "value": 781, "unit": "µg·h/mL"}, {"measurement": "CI (total clearance)", "setting": "[6]; [10]", "value": 17.2, "unit": "mL/min/kg"}, {"measurement": "Cmax", "setting": "[6]; [10]", "value": "3730 ng/mL and 3730 ng/g"}, {"measurement": "Vd", "setting": "[6]; [10]", "value": 0.685, "unit": "L/kg"}, {"measurement": "Vdss", "setting": "[6]; [10]", "value": 0.685, "unit": "L/kg"}, {"measurement": "clearance", "setting": "[6]; [10]", "value": 17.2, "unit": "mL/min/kg"}, {"measurement": "total clearance as share of rat liver blood flow (=55 mL/min/kg)", "setting": "[6]; [10]", "value": "approximately 31.3%"}, {"measurement": "AUC(0-t)", "setting": "[6]; male, Sprague-Dawley, rat, in vivo, iv, 1000 mg/kg, AUC0-last", "value": 778, "unit": "µg·h/mL"}, {"measurement": "Kp", "setting": "[6]; male, Sprague-Dawley, rat, in vivo, iv, 1000 mg/kg, AUC ratio = Muscle AUC0-inf/Plasma AUC0-inf", "value": 0.234}, {"measurement": "Kp", "setting": "[6]; male, Sprague-Dawley, rat, in vivo, iv, 1000 mg/kg, mean ratios of muscle trehalose concentration to plasma concentration", "value": "2.88 to 3.76"}, {"measurement": "AUC(0-t)", "setting": "[6]; male, Sprague-Dawley, rat, in vivo, iv, 1000 mg/kg, muscle exposure AUC0-last (48 hr)", "value": 107, "unit": "µg·h/mL"}, {"measurement": "AUC0-inf/AUC0-last", "setting": "[6]; [11]", "value": 108, "unit": "%"}, {"measurement": "AUC0-last", "setting": "[6]; [11]", "value": 4520, "unit": "ng·h/mL"}, {"measurement": "AUC(0-inf)", "setting": "[6]; [11]", "value": 4.87, "unit": "µg·h/mL"}, {"measurement": "Cmax", "setting": "[6]; [11]", "value": 4280, "unit": "ng/mL"}, {"measurement": "T1/2", "setting": "[6]; [11]", "value": 44.4, "unit": "min"}, {"measurement": "AUC(0-t)", "setting": "[6]; male, Sprague-Dawley, rat, in vivo, po, 1000 mg/kg, AUC0-last", "value": 4.52, "unit": "µg·h/mL"}, {"measurement": "MRT inf", "setting": "[6]; male, Sprague-Dawley, rat, in vivo, po, 1000 mg/kg, MRT0-inf", "value": 1.26, "unit": "h"}, {"measurement": "MRT last", "setting": "[6]; male, Sprague-Dawley, rat, in vivo, po, 1000 mg/kg, MRT0-last", "value": 1.04, "unit": "h"}, {"measurement": "half-life", "setting": "[6]; male, Sprague-Dawley, rat, in vivo, po, 1000 mg/kg, T1/2", "value": 44.4, "unit": "min"}, {"measurement": "cellular uptake and retention after rapid intravenous administration", "setting": "[6]; rat, in vivo, iv", "value": "48 to 72", "unit": "h"}, {"measurement": "AUC0-last", "setting": "[6]; rat, in vivo, iv, 1000 mg/kg", "value": 107000, "unit": "ng·h/g"}, {"measurement": "AUC(0-inf)", "setting": "[6]; rat, in vivo, iv, 1000 mg/kg", "value": 183000, "unit": "ng·h/g"}, {"measurement": "muscle samples of oral group", "setting": "[6]; rat, in vivo, po, 1000 mg/kg", "value": "below LLOQ"}, {"measurement": "plasma and muscle concentrations of trehalose, formulation administered orally", "setting": "[6]; rat, in vivo, po, 1000 mg/kg", "value": "undetectable"}, {"measurement": "LD50", "setting": "[7]; Intravenous", "value": ">1000", "unit": "mg/kg bw"}, {"measurement": "LD50", "setting": "[7]; Oral", "value": ">5000", "unit": "mg/kg bw"}, {"measurement": "signs of toxicity and deaths", "setting": "[7]; dogs, oral and intravenous administration", "value": "no deaths occurred"}, {"measurement": "LD50", "setting": "[8]; Intravenous", "value": ">1000", "unit": "mg/kg bw"}, {"measurement": "LD50", "setting": "[8]; Oral", "value": ">5000", "unit": "mg/kg bw"}, {"measurement": "signs of toxicity and deaths", "setting": "[8]; mice, oral and intravenous administration", "value": "no deaths occurred"}, {"measurement": "aggregate formation", "setting": "[9]", "value": "decreased aggregate formation"}, {"measurement": "muscle weakness", "setting": "[9]", "value": "attenuation of muscle weakness"}, {"measurement": "number of pathological skeletal muscle fibers", "setting": "[9]", "value": "reduced number of pathological skeletal muscle fibers"}]}]}
